“And” between values parts separate entries of the source, which are not always exact repeats. Equal values may be shown once. “Also recorded” adds a separate entry of the source.
Tests used:
mice exposed to OIR = assay: Mouse oxygen-induced ischemic retinopathy (OIR) model, retinal neovascularization; type: in vivo; details: GA 10 mg/kg, P17 mice exposed to OIR, p<0.001
Description: FIG. 9B is a bar graph providing a quantitative assessments of retinal neovascularization in eyes from P17 control and GA-treated mice exposed to OIR. Data in each column are the mean SD values from four eyes of four mice. […] GA concentration was used as 10 mg/kg for this mouse model. Assessment of retinal neovasculature in control (left) and GA-treated (right) mice during OIR.P7 mice were exposed to a cycle of hyperoxia and normoxia, and eyes were removed for appropriate analysis. The abnormal angiogenesis associated with vitreal invasion can be seen as glomeruloid-like tufts of cell (arrow).

HUVEC cells [1] = assay: Flow cytometry / FACS apoptosis (Sub G1, propidium iodide); type: cell-based, human; details: 24 hours
Description: (§1) About 2×10^6 HUVEC and PC3 cells were treated with different concentrations of GA at 37° C. in a 5% CO2 incubator for 24 hours. The cells were collected and flow cytometry was performed using a FACS Vantage SE DiVa flow cytometer (Becton Dickinson) with propidium iodide staining. The cell population percentages at Sub G1 were defined as apoptotic cells.

PC3 cells = assay: as above; type: cell-based, human; details: 24 hours
Description: as §1

VEGFR2 = molecular target: T1, VEGFR2 (Homo sapiens, UniProt P35968); assay: VEGFR2 tyrosine phosphorylation in VEGF stimulated HUVEC cells (immunoprecipitation, Western blotting); type: cell-based; details: 1 nM GA, 4 nM VEGF, 5 minutes
T1 construct: endogenous in cells; host or cells: HUVEC
T1 sequence (P35968 20-1356): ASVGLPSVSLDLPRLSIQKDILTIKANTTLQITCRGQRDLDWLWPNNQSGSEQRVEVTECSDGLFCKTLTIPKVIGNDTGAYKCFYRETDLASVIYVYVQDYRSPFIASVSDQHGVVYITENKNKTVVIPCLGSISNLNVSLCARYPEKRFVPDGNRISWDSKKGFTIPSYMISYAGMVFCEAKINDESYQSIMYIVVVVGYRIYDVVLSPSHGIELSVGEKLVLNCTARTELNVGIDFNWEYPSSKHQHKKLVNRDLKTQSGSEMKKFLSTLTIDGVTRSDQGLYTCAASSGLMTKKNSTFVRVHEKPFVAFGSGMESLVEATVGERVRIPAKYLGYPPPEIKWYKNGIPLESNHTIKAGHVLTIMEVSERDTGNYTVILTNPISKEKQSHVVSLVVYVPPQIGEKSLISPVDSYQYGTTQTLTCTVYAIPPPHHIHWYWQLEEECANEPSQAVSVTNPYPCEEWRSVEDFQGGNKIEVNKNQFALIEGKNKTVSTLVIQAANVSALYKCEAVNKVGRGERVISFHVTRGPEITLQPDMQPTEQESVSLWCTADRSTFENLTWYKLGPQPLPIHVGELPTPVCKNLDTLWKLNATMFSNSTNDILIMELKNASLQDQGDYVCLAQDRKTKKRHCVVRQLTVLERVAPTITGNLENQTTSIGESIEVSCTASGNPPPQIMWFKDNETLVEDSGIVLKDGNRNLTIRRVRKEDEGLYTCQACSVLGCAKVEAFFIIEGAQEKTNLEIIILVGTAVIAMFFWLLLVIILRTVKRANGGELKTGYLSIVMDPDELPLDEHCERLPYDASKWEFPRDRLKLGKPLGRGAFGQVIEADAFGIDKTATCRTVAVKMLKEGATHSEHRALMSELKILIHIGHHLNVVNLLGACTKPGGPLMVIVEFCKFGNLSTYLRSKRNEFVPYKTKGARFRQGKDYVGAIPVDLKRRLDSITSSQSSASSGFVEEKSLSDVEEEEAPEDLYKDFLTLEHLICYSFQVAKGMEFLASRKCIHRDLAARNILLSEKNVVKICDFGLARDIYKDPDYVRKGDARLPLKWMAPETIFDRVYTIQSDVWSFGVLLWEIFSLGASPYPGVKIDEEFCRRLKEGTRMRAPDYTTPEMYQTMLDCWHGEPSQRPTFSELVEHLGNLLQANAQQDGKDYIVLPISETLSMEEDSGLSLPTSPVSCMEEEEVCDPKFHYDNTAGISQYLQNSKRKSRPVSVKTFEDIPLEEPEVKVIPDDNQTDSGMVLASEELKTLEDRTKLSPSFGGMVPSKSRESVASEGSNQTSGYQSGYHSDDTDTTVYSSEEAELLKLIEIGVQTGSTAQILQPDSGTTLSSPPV
Description: After starvation in ECGM medium without serum overnight, HUVEC cells were washed with 1×PBS twice, followed with incubation in M199 medium. HUVEC cells were then treated with 1 nM of GA and/or 4 nM of VEGF for 5 minutes, then subjected to immunoprecipitation using anti-VEGFR2 antibody. Anti-phosphotyrosine antibody was used for the detection of phosphorylation of the tyrosine residue of VEGFR2. […] Reaction cocktail containing 100 ng of active VEGFR2 was incubated with different concentrations of GA for 5 minutes at room temperature. Substrate peptide cocktail was added to the pre-incubated reaction cocktail/GA compound. After incubation at room temperature for 30 minutes, stop buffer was added to halt the reaction. 25 μl of each reaction was then transferred with 75 μl dH2O per well into a 96-well streptavidin coated plate and incubated at room temperature for 60 minutes. […] The stop solution was added and the plate was detected at 405 nm. […]
VEGFR2 is the primary receptor in VEGF signaling pathway that regulates endothelial cell proliferation, migration, differentiation, tube formation, and angiogenesis. […] HUVEC cells were stimulated with VEGF; phosphorylation and activation of VEGFR2 was detected by immunoprecipitation with anti-VEGFR2 (Flk-1) antibody and by Western blotting with anti-pTyr-antibody for phosphorylation of VEGFR2.

HUVEC cells [2] = assay: Transwell migration (invasion) assay; type: cell-based, human; details: 40 nM GA, 4 hours
Description: The transwell (Corning Incorporated, NY, USA) were coated with 0.1% gelatin (Sigma) for 30 minutes at 37° C. After washed the transwells three times with 1×PBS, the bottom chambers (600 μl) were filled with ECGM medium with 20% FBS supplemented with 4 ng/ml VEGF and the top chambers were seeded with 100 μl ECGM medium and HUVEC cells (4×10^4 cell/well). The top and bottom chambers contained the same series of concentrations of gambogic acid (GA). HUVEC cells were allowed to migrate for 4 hours at 37° C., 5% CO2. After the incubation, cells on the top surface of the membrane (nonmigrated) were scraped with a cotton swab. Cells on the bottom side of the membrane (migrated cells) were fixed with 4% paraformaldehyde for 20 minutes and washed three times with 1×PBS. The cells were stained by hematoxylin and eosin (hereinafter, H&E) staining and then destained with 1×PBS (pH 7.4). The membranes were left to air dry at room temperature for 30 minutes. Images were taken using an OLYMPUS inverted microscope and migrated cells were quantified by manual counting using high power fields (HPF, 200×). The invaded cells were calculated and percent inhibition was expressed using untreated wells as 100% (t-test, p<0.01).

HUVEC cells [3] = assay: Wound migration assay, VEGF dependent; type: cell-based, human; details: 10 nM GA, 4 ng/ml VEGF, 24 hours
Description: HUVEC cells were allowed to grow to full confluence on six-well plates precoated with 0.1% gelatin. Monolayer cells were wounded by scratching with 1 ml pipette tip and washed three times with 1×PBS. Fresh endothelial cell growth medium (hereinafter, ECGM) was added with or without 4 ng/ml VEGF, which was received from the NIH experimental branch, and supplemented with different concentrations of GA. Images were taken after 24 hours of incubation at 37° C. in a 5% CO2 incubator (hereinafter, 5% CO2) with a Nikon digital camera. For PC3 cell migration, PC3 cells were allowed to grow to full confluence on six-well plates and wounded by scratching with a 1 ml pipette tip and washed three times of 1×PBS. Fresh 1640 medium was added with 4 ng/ml VEGF and different concentrations of GA. After a 24-hour incubation period, images were take with a Leica DM IRB inverted microscope. The migrated cells were quantified by manual counting of high power fields (HPF, 200×) and percent inhibition was expressed using untreated wells as 100% (t-test, p<0.005).

SMILES: CC(C)=CCC[C@]1(C)C=Cc2c(O)c3c(c(CC=C(C)C)c2O1)O[C@]12C(=C[C@@H]4C[C@H]1C(C)(C)O[C@@]2(C/C=C(/C)C(=O)O)C4=O)C3=O [GA, gambogic acid]
- Retinal neovascularization (mice exposed to OIR): significantly inhibits retinal neovascularization; also recorded: significant difference in the degree of neovascularization
- Apoptotic population (HUVEC cells [1]; GA 20 nM): 11.6 ± 1.1 % of total
- Apoptotic population (HUVEC cells [1]; GA 40 nM): 14.4 ± 2.3 % of total
- Apoptotic population (HUVEC cells [1]; GA 80 nM): 40 % of total and 40 ± 3.6 % of total
- Apoptotic population (HUVEC cells [1]; GA 100 nM): 57.6 ± 4.7 % of total
- Apoptotic population (PC3 cells; GA 20 nM): 1.6 ± 0.3 % of total
- Apoptotic population (PC3 cells; GA 40 nM): 2.9 ± 0.4 % of total
- Apoptotic population (PC3 cells; GA 80 nM): 4 % of total and 4.3 ± 0.5 % of total
- Apoptotic population (PC3 cells; GA 100 nM): 13.8 ± 3.6 % of total
- Phosphorylation and activation of VEGFR2 in HUVEC cells (VEGFR2): dramatically inhibited the phosphorylation of VEGFR2; also recorded: strongly inhibited VEGFR2 kinase activity
- Invasion of HUVEC cells (transwell) (HUVEC cells [2]): inhibit almost all invasion activities
- VEGF dependent migration of HUVEC cells (HUVEC cells [3]): inhibits VEGF dependent migration; also recorded: strongly inhibited VEGF dependent migration

Reference: patent US20090259054A1, “Methods and Compositions for the Treatment of Angiogenesis and Macular Degeneration” (The Texas A&M University System, priority 2008, published 2009)
